Assay results as given in patent publication US20050287169A1, “Methods of use of genes of pyridoxal 5'-phosphate biosynthesis in Bacillus subtilis: avirulent strains for vaccines, and methods for identification of antibacterial agents” (priority 2003, published 2005).

Experiments:
[1] = test system: B. subtilis strain BB2253 (ΔpdxS); test: Growth of B. subtilis pdxS (yaaD) null mutant BB2253 with supplements; format: cell-based, Bacillus subtilis
Method: (§1) Bacterial strains, plasmids and culture media. B. subtilis strains were grown at 37° C. in TSS minimal medium with 0.5% glucose as the carbon source and 0.2% glutamate or NH4Cl as nitrogen source, in LB broth [Miller, 1972], or in DS nutrient broth medium [Fouet, 1990]. The same media with addition of agar were used for growth of bacteria on plates. LB broth or LB agar was used for growth of Escherichia coli strains. The following antibiotic concentrations were used as appropriate: chloramphenicol, 2.5 μg/ml; neomycin, 2.5-5 μg/ml; phleomycin, 0.25 μg/ml; spectinomycin, 50 μg/ml; or a combination of erythromycin, 0.5 μg/ml, and lincomycin, 12.5 μg/ml, for B. subtilis strains; ampicillin, 50-100 μg/ml; kanamycin, 25 μg/ml; spectinomycin, 50 μg/ml; or chloramphenicol, 10 μg/ml, for E. coli strains.
Construction of yaaD and yaaE null mutants. A deletion mutation within gene yaaD was created by cutting out the 606-bp fragment starting at the AatII site of pBB1181 (FIG. 2) and religating the remaining fragment after filling in its ends (the deletion endpoint, as determined by sequencing, was determined to be beyond the HindIII site, designed for this construct). In the resulting plasmid, pBB1185 (FIG. 2), the deletion was found not to alter the reading frame ofyaaD. pBB1218, a truncated version of pBB1185 (FIG. 2), was introduced by a single-crossover, homologous recombination event into the chromosome of strain SMY, selecting transformants for neomycin resistance. […] After growth of cells of the […] Pdx^− strain in the absence of neomycin, a Neos Pdx^− derivative was isolated. In this strain it was observed that the integrated pBB1218 had been excised from the chromosome and lost. Replacement of the wild-type yaaD gene by the ΔyaaD allele in strain BB2253 and excision of pBB1218 was confirmed by sizing PCR fragments generated from the yaaD locus and by probing for the loss of vector sequences.
Poor ability to utilize PN has been observed for uncharacterized B. subtilis mutants that appeared to require B6 vitamers for growth [Pflug, 1978]. B. subtilis cells apparently lack the pdxH-like gene and the corresponding pyridoxine 5′-phosphate oxidase activity [Pflug, 1983] required for conversion of pyridoxine to PLP.

[2] = test system: G. stearothermophilus PdxT-His6 protein
[3] = test system: B. subtilis strain BB2279 (wild-type); test: Growth rate of wild-type B. subtilis strain BB2279 carrying pdxS-lacZ; format: cell-based, Bacillus subtilis
Method: as §1
No effect of addition of excess pyridoxal (up to 1 mM) was observed on expression or on growth rate. Further, a moderate activation of expression (about 3-4-fold) was observed as a result of B6 limitation, for example, by growth of apdxT mutant in LB broth. This effect was not observed or was much less pronounced for the pdxT mutant using LB broth supplemented with excess PL or NH4Cl (FIG. 6), or in a wild type strain. […]

[4] = test system: B. subtilis pdxT mutant (strains BB2256, BB2290); test: Growth of B. subtilis pdxT (yaaE) null mutant with supplements; format: cell-based, Bacillus subtilis
Method: as §1
A deletion-insertion mutation within the yaaE gene was constructed by replacing a 135-bp SphI-EcoRI fragment of pBB1213 (FIG. 2) with a 1.4-kb SphI-EcoRI ble cassette determining resistance to phleomycin, excised from pJPM136 [Belitsky, 1998]. The orientation of the ble gene in the resulting plasmid pBB1217 (ΔyaaE::ble; FIG. 2) coincided with that of the yaaE gene. Plasmid pBB1217 was introduced into B. subtilis SMY, and Phlr NeoS transformants arising from double crossover homologous recombination events were selected. Replacement of the chromosomal yaaE gene by the ΔyaaE::ble allele in strain BB2256 was confirmed by comparing sizes of PCR fragments from each of the wild-type and the mutant yaaE chromosomal loci.

[5] = test system: B. subtilis strain BB2267 (ΔpdxS ΔpdxZ::spc); test: Viability and growth of double pdxS pdxZ null mutant BB2267 with PLP precursors; format: cell-based, Bacillus subtilis; settings: for Viability of double mutant pdxS pdxZ (BB2267): DS nutrient broth or glucose-ammonium TSS medium
Source text: Double pdxS pdxZ and pdxT pdxZ null mutants, defective both in de novo and salvage pathways of PLP synthesis, were obtained by introducing the pdxZ mutation into the chromosome of the pdxS or pdxT mutant cells by transformation.
Viability of cells of strain BB2295 carrying both pdxS and pdxZ mutations was also obtained in the absence of exogenous pyridoxal in the presence of xylose, by conditionally restoring the de novo pathway of PLP synthesis with a xylose-inducible form of the pdxS gene at an ectopic location, i.e., located elsewhere on the chromosome. These and similarly constructed conditional lethal strains can be used for vaccine development, to overcome possible lethality to the bacteria during culture of cells carrying double pdxS and pdxZ or double pdxT and pdxZ mutations.

[6] = test system: pdxS-lacZ fusion; test: Expression of pdxS-lacZ fusion (β-galactosidase activity); format: cell-based, Bacillus subtilis; settings: for β-Galactosidase activity: NH4Cl 10 mM, PL 100 μM, glucose-minimal medium
Source text: Construction of transcriptional pdxS-lacZ (yaaD-lacZ) and pdxT-lacZ (yaaE-lacZ) fusions. The 1.35-kb BamHI-EcoRI fragment containing the entire intragenic region between dacA and pdxS, the entire pdxS gene, and the 5′-end of the pdxT gene (FIG. 2), was cut out from the PCR product generated using primers oBB120 and oBB121 and was cloned between the corresponding sites of pHK23 to construct pBB1254 (pdxST-lacZ; FIG. 2). Plasmid pHK23 containing an erythromycin resistance gene was derived from pLG103 [Belitsky et al., 2002, the entire contents of which are hereby incorporated by reference herein]. To construct plasmid pBB1259 with apdxS-lacZ fusion (FIG. 2), a 0.50-kb HindIII-EcoRI fragment containing the 3′-end of the pdxS gene and the 5′-end of thepdxT gene, was cut out of pBB1254, and the plasmid was blunt-ended and religated. To construct plasmid pBB1262 with a pdxT-lacZ fusion (FIG. 2), a 0.43-kb BamHI-BseRI fragment, containing the pdxS promoter and the 5′-part of the pdxS gene, was cut out of pBB1254, and the plasmid was blunt-ended and religated. Strains BB2277, 2279, and 2285 carrying thepdx-lacZ transcriptional fusions integrated at the amyE locus were isolated after transforming strain SMY with pBB1254, 1259, and 1262, respectively, selecting for resistance to erythromycin and screening for loss both of α-amylase production (Amy) and vector sequences as indications of a double crossover, homologous recombination event. The Amy phenotype was assayed using colonies grown overnight on Tryptose Blood Agar Base (Difco)-0.2% starch plates [Fouet, 1990].
Activity of β-galactosidase was determined as described previously [Belitsky, 1995]. Specific activities are expressed in Miller units (1000×OD420/min·ml·OD600) [Miller, 1972].
ApdxS-lacZ transcriptional fusion (plasmid pBB1259; FIG. 2) was constructed as described in Materials and Methods herein, and was integrated at the ectopic amyE locus of the B. subtilis chromosome (strain BB2279).
No effect of addition of excess pyridoxal (up to 1 mM) was observed on expression or on growth rate. Further, a moderate activation of expression (about 3-4-fold) was observed as a result of B6 limitation, for example, by growth of apdxT mutant in LB broth. This effect was not observed or was much less pronounced for the pdxT mutant using LB broth supplemented with excess PL or NH4Cl (FIG. 6), or in a wild type strain. Further, a 2-3-fold decrease in β-galactosidase activity was observed inpdxT mutant cells grown in TSS-glucose mediume with limiting concentrations of ammonium salts, and this decrease in pdxS-lacZ expression was prevented by the presence of PL (Table 5).

[7] = test system: L. monocytogenes strain BL1 (ΔpdxST::spc); test: Growth of Listeria monocytogenes ΔpdxST::spc mutant BL1 with B6 vitamers; format: cell-based
Method: The resulting plasmid, pBB1212, was introduced into E. coli strain DW1030 containing conjugative plasmid pRK231.7, a broad host range plasmid of the IncP incompatibility group. pBB1212 was transferred from strain DW1030 (pBB1212) into L. monocytogenes cells by conjugation [Trieu-Cuot, 1987] at the temperature (30°) permissive for replication of pBB1212. The ΔpdxST::spc mutants, formed due to allelic exchange resulting from pBB1212 plasmid integration into the chromosome at the non-permissive temperature (41°) and excision at the permissive temperature, were obtained by screening colonies that lost the plasmid marker (chloramphenicol-resistance) and had retained resistance to spectinomycin. Replacement of the chromosomal pdxST locus by the ΔpdxST::spc allele in strain BL1 was confirmed by comparing the sizes of PCR fragments obtained by use of the wild-type and mutant pdxST chromosomal loci as templates.
These traits of the L. monocytogenes mutant are similar to those observed herein with the corresponding B. subtilis mutant.

[8] = test system: Bacillus circulans pdxT mutant; settings: addition of pyridoxine; cited from earlier work
[9] = biological target: T1, wild-type B. subtilis PdxS protein (Bacillus subtilis, UniProt P37527 2-294); test: co-purification on a Ni2+-affinity column from E. coli co-expressing both proteins (0.5 M NaCl, 0.4 M imidazole), SDS-PAGE
T1 construct: Co-expressed with PdxT-His6 in E. coli; also called YaaD; unmodified PdxS
T1 sequence (looked up): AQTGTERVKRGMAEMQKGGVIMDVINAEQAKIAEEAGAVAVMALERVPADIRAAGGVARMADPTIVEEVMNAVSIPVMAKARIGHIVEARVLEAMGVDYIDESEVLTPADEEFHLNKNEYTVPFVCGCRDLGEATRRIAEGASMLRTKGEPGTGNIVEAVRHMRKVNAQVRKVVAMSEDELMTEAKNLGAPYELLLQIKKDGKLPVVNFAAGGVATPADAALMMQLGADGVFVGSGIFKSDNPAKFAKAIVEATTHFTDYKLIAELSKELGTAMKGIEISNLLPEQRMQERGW
Method: pBAD derivatives were introduced into E. coli LMG194 (ara⁻) [Guzman, 1995] cells by transformation. The PdxS and/or PdxT proteins were induced in L-broth cultures (A₆₀₀=0.25−0.4) by addition of 0.2% L-arabinose and incubation for four hours. Cells were pelleted, were washed in 50 mM tris-Cl (pH 8.0)-5% glycerol and were disrupted by sonication in modified Novagen binding buffer (20 mM tris-Cl (pH 7.9)-500 mM NaCl-5 mM imidazole-5% glycerol) plus 1 mM phenylmethylsulfonyl fluoride and 0.1% Nonidet P-40. The sonicate was clarified by low speed centrifugation, and the supernatant was purified using a 2 ml Ni²⁺-column (Novagen) as described by the manufacturer. Buffers containing increasing concentrations of imidazole, from 30 mM to 1 M, were initially used for elution, and 485 mM and 385 mM imidazole were found suitable for elution of PdxS and PdxT proteins, respectively.
E. coli strains overproducing each of the wild-type version of the B. subtilis PdxS protein and the His₆-tagged version of PdxT were constructed, and were used for purification of the PdxT-His₆ protein by Ni²⁺-affinity chromatography.

[10] = strain BB2279, up to 1 mM pyridoxal
[11] = isoleucine 500 μg/ml, with or without pyridoxine

Cc1ncc(COP(=O)(O)O)c(C=O)c1O [PLP, Pyridoxal 5′-phosphate]
Growth of strain BB2253 in the presence of PLP [1]: Poor growth

G. stearothermophilus PdxS containing a His6-tag at its C-terminus
glutaminase activity [2]: It was found that the G. stearothermophilus PdxST complex has glutaminase activity

Cc1ncc(CO)c(CN)c1O [Pyridoxamine]
Effectiveness for growth of the mutant compared with pyridoxal ([1]; strain BB2253): several-fold less effective

Cc1ncc(CO)c(C=O)c1O [pyridoxal]
Growth rate ([3]; BB2279 wild-type, NH4Cl 10 mM, PL 100 μM, glucose-minimal medium): 60 min
Effect of excess pyridoxal on growth rate [3, 10]: No effect
Growth rate ([4]; BB2290 pdxT, NH4Cl 10 mM, PL 100 μM, glucose-minimal medium): 60 min
Growth rate of strain BB2256 in the presence of PL ([4]; minimal and rich media): restored to that of the wild type cell
Growth and viability of double mutant pdxS pdxZ ([5]; 1 mM pyridoxal): Growth and viability
Pyridoxal concentration needed by the double mutant relative to that required for full growth of the pdxS mutant ([5]; 1 mM versus 1 μM): 1000 fold
Viability of double mutant pdxS pdxZ (BB2267) ([5]; 1 μM pyridoxal): non-viable
Growth of B. subtilis ΔpdxS ([1]; FIG. 3A, 0.01 μM pyridoxal): no growth observed
Minimal concentration of pyridoxal supporting growth of B. subtilis ΔpdxS ([1]; FIG. 3A, growth rate a function of PL concentration up to 10 μM): 0.03 µM
Growth defects of strain BB2253 in rich media on addition of pyridoxal ([1]; LB-broth, brain heart infusion medium or DS medium): relieved
Restoration of growth of strain BB2253 ([1]; minimal media, 1 μM pyridoxal): fully restored
β-Galactosidase activity ([6]; BB2279 wild-type): 190.4 Miller units
β-Galactosidase activity ([6]; BB2290 pdxT): 142.4 Miller units
Effect of PL on the 2-3-fold decrease in pdxS-lacZ expression in pdxT mutant cells ([6]; TSS-glucose medium, limiting ammonium salts): prevented
Effect of excess pyridoxal on pdxS-lacZ expression [6, 10]: No effect
Restoration of growth of strain BL1 ([7]; 1 μM pyridoxal): fully restored

Cc1ncc(CO)c(CO)c1O [pyridoxine]
Remediation of growth defect of B. circulans pdxT mutant [8]: not remediated
Viability of double mutant pdxS pdxZ (BB2267) ([5]; 200 μM pyridoxine): non-viable
Restoration of growth of strain BB2253 ([1]; 200 μM pyridoxine): only partially restored
Restoration of growth of strain BL1 ([7]; 100 μM pyridoxine): not at all

CC[C@H](C)[C@H](N)C(=O)O [isoleucine]
Effect on growth of the pdxT mutant [4, 11]: No effect
Effect on growth of the pdxS mutant [1, 11]: No effect

B1: His6-tagged version of B. subtilis PdxT (enzyme, Bacillus subtilis)
chain: MLTIGVLGLQGAVREHIHAIEACGAAGLVVKRPEQLNEVDGLILPGGESTTMRRLIDTYQFMEPLREFAAQGKPMFGTCAGLIILAKEIAGSDNPHLGLLNVVVERNSFGRQVDSFEADLTIKGLDEPFTGVFIRAPHILEAGENVEVLSEHNGRIVAAKQGQFLGCSFHPELTEDHRVTQLFVEMVEEYKQKALVHHHHHH
notes: Overproduced in E. coli from pBB1252 (with PdxS) or pBB1256 (alone) and purified on a Ni2+ column; also called PdxT-His6; PdxT-H6
binding result [9]: binds
